Assay results as given in ChEMBL document CHEMBL3232991, “New polyfunctional imidazo[4,5-C]pyridine motifs: synthesis, crystal studies, docking studies and antimicrobial evaluation” (Eur J Med Chem, 2014).
Values after ≈ are worked out from the molar mass of the structure shown. Active and inactive are the calls of the source. The rule behind the calls is not given here.

What was measured:
[1] = system: Staphylococcus aureus; test: Antibacterial activity against Staphylococcus aureus MTCC 4102 assessed as diameter of growth inhibition zone at 500 ug/ml after 20 hrs by agar disc diffusion method; type: functional
[2] = system: Bacillus cereus; test: Antibacterial activity against Bacillus cereus NCIM 2155 assessed as diameter of growth inhibition zone at 500 ug/ml after 20 hrs by agar disc diffusion method; type: functional; conditions: for zone of inhibition at 500 µg/mL: NCIM 2155, 20 h, read-out: DIZ
[3] = system: Escherichia coli; test: Antibacterial activity against Escherichia coli NCIM 2931 assessed as diameter of growth inhibition zone at 1000 ug/ml after 20 hrs by agar disc diffusion method; type: functional; conditions: for zone of inhibition at 1000 µg/mL: NCIM 2931, 20 h, read-out: DIZ
[4] = system: Candida albicans; test: Antifungal activity against Candida albicans MTCC 183 assessed as diameter of growth inhibition zone at 1000 ug/ml after 4 days by agar disc diffusion method; type: functional; conditions: for zone of inhibition at 1000 µg/mL: MTCC 183, 96 h, read-out: DIZ
[5] = system: Saccharomyces cerevisiae; test: Antifungal activity against Saccharomyces cerevisiae NCIM 3044 assessed as diameter of growth inhibition zone at 500 ug/ml after 4 days by agar disc diffusion method; type: functional; conditions: for zone of inhibition at 500 µg/mL: NCIM 3044, 96 h, read-out: DIZ
[6] = system: Candida albicans; test: Antifungal activity against Candida albicans MTCC 183 assessed as diameter of growth inhibition zone at 500 ug/ml after 4 days by agar disc diffusion method; type: functional; conditions: for zone of inhibition at 500 µg/mL: MTCC 183, 96 h, read-out: DIZ
[7] = system: Staphylococcus aureus; test: Antibacterial activity against Staphylococcus aureus MTCC 4102 assessed as diameter of growth inhibition zone at 1000 ug/ml after 20 hrs by agar disc diffusion method; type: functional
[8] = system: Escherichia coli; test: Antibacterial activity against Escherichia coli NCIM 2931 assessed as diameter of growth inhibition zone at 500 ug/ml after 20 hrs by agar disc diffusion method; type: functional; conditions: for zone of inhibition at 500 µg/mL: NCIM 2931, 20 h, read-out: DIZ
[9] = system: Bacillus cereus; test: Antibacterial activity against Bacillus cereus NCIM 2155 assessed as diameter of growth inhibition zone at 1000 ug/ml after 20 hrs by agar disc diffusion method; type: functional; conditions: for zone of inhibition at 1000 µg/mL: NCIM 2155, 20 h, read-out: DIZ
[10] = system: Pseudomonas aeruginosa; test: Antibacterial activity against Pseudomonas aeruginosa MTCC 4727 assessed as diameter of growth inhibition zone at 1000 ug/ml after 20 hrs by agar disc diffusion method; type: functional; conditions: for zone of inhibition at 1000 µg/mL: MTCC 4727, 20 h, read-out: DIZ
[11] = system: Saccharomyces cerevisiae; test: Antifungal activity against Saccharomyces cerevisiae NCIM 3044 assessed as diameter of growth inhibition zone at 1000 ug/ml after 4 days by agar disc diffusion method; type: functional; conditions: for zone of inhibition at 1000 µg/mL: NCIM 3044, 96 h, read-out: DIZ
[12] = system: Pseudomonas aeruginosa; test: Antibacterial activity against Pseudomonas aeruginosa MTCC 4727 assessed as diameter of growth inhibition zone at 500 ug/ml after 20 hrs by agar disc diffusion method; type: functional; conditions: for zone of inhibition at 500 µg/mL: MTCC 4727, 20 h, read-out: DIZ
[13] = system: Candida albicans; test: Antifungal activity against Candida albicans MTCC 183 assessed as diameter of growth inhibition zone at 10 ug/ml after 4 days by agar disc diffusion method; type: functional
[14] = system: Bacillus cereus; test: Antibacterial activity against Bacillus cereus NCIM 2155 assessed as diameter of growth inhibition zone at 10 ug/ml after 20 hrs by agar disc diffusion method; type: functional
[15] = system: Staphylococcus aureus; test: Antibacterial activity against Staphylococcus aureus MTCC 4102 assessed as diameter of growth inhibition zone at 10 ug/ml after 20 hrs by agar disc diffusion method; type: functional
[16] = system: Escherichia coli; test: Antibacterial activity against Escherichia coli NCIM 2931 assessed as diameter of growth inhibition zone at 10 ug/ml after 20 hrs by agar disc diffusion method; type: functional
[17] = system: Pseudomonas aeruginosa; test: Antibacterial activity against Pseudomonas aeruginosa MTCC 4727 assessed as diameter of growth inhibition zone at 10 ug/ml after 20 hrs by agar disc diffusion method; type: functional
[18] = system: Saccharomyces cerevisiae; test: Antifungal activity against Saccharomyces cerevisiae NCIM 3044 assessed as diameter of growth inhibition zone at 10 ug/ml after 4 days by agar disc diffusion method; type: functional
[19] = system: Candida albicans; test: Antifungal activity against Candida albicans MTCC 183 assessed as assessed as growth inhibition after 48 hrs by broth microdilution method; type: functional, organism-based; conditions: MTCC 183, 48 h
[20] = system: Escherichia coli; test: Antibacterial activity against Escherichia coli NCIM 2931 assessed as growth inhibition after 24 hrs by broth microdilution method; type: functional, organism-based; conditions: NCIM 2931, 24 h
[21] = system: Saccharomyces cerevisiae; test: Antifungal activity against Saccharomyces cerevisiae NCIM 3044 assessed as growth inhibition after 48 hrs by broth microdilution method; type: functional, organism-based; conditions: NCIM 3044, 48 h

| SMILES | diameter of the inhibition zone (DIZ) [1] | diameter of the inhibition zone (DIZ) [2] | diameter of the inhibition zone (DIZ) [3] | diameter of the inhibition zone (DIZ) [4] | diameter of the inhibition zone (DIZ) [5] | diameter of the inhibition zone (DIZ) [6] | diameter of the inhibition zone (DIZ) [7] | diameter of the inhibition zone (DIZ) [8] | diameter of the inhibition zone (DIZ) [9] | diameter of the inhibition zone (DIZ) [10] | diameter of the inhibition zone (DIZ) [11] | diameter of the inhibition zone (DIZ) [12] | also measured |
| --- | --- | --- | --- | --- | --- | --- | --- | --- | --- | --- | --- | --- | --- |
| N#CC1CCCN(c2ncc(-c3cccc(F)c3)c3[nH]c(Cc4cc(F)ccc4F)nc23)C1 (centres undefined) | inactive | inactive | inactive | inactive | inactive | inactive | inactive | inactive | inactive | inactive | inactive | inactive |  |
| OC(Cn1cncn1)(Cn1cncn1)c1ccc(F)cc1F [FLUCONAZOLE] |  |  |  |  |  |  |  |  |  |  |  |  | zone of inhibition at 10 µg/mL ([13]; MTCC 183, 96 h, read-out: DIZ): 25 mm; diameter of the inhibition zone (DIZ) [14]: inactive; diameter of the inhibition zone (DIZ) [15]: inactive; diameter of the inhibition zone (DIZ) [16]: inactive; diameter of the inhibition zone (DIZ) [17]: inactive; zone of inhibition at 10 µg/mL ([18]; NCIM 3044, 96 h, read-out: DIZ): 24 mm |
| CCC(CC)c1nc2c(N3CCCC(C#N)C3)ncc(-c3cccc(F)c3)c2[nH]1 (centres undefined) | inactive | inactive | inactive | inactive | inactive | inactive | inactive | inactive | inactive | inactive | inactive | inactive |  |
| Cc1cccc(Cc2nc3c(N4CCCC(C#N)C4)ncc(-c4cccc(F)c4)c3[nH]2)c1 (centres undefined) | inactive | inactive | inactive |  | inactive |  | inactive | inactive | inactive |  | inactive |  | zone of inhibition at 1000 µg/mL [4]: 15 mm; zone of inhibition at 500 µg/mL [6]: 6.8 mm; IC50 [19]: 206 µg/mL (≈ 485 µM); MIC [19]: 404 µg/mL (≈ 950 µM); zone of inhibition at 1000 µg/mL [10]: 13 mm; zone of inhibition at 500 µg/mL [12]: 6.2 mm |
| N#CC1CCCN(c2ncc(-c3cccc(F)c3)c3[nH]c(CCc4ccccc4)nc23)C1 (centres undefined) | inactive |  | inactive | inactive | inactive | inactive | inactive | inactive |  | inactive | inactive | inactive | zone of inhibition at 500 µg/mL [2]: 6.7 mm; zone of inhibition at 1000 µg/mL [9]: 13 mm |
| N#CC1CCCN(c2ncc(-c3cccc(F)c3)c3[nH]c(CSc4ccccc4)nc23)C1 (centres undefined) | inactive | inactive | inactive | inactive | inactive | inactive | inactive | inactive | inactive |  | inactive |  | zone of inhibition at 1000 µg/mL [10]: 11 mm; zone of inhibition at 500 µg/mL [12]: 5.2 mm |
| N#CC1CCCN(c2ncc(-c3cccc(F)c3)c3[nH]c(-c4ccco4)nc23)C1 (centres undefined) | inactive | inactive |  | inactive |  | inactive | inactive |  | inactive | inactive |  | inactive | IC50 [20]: 74.5 µg/mL (≈ 192 µM); MIC [20]: 198 µg/mL (≈ 510 µM); zone of inhibition at 1000 µg/mL [3]: 16 mm; zone of inhibition at 500 µg/mL [5]: 6.9 mm; zone of inhibition at 500 µg/mL [8]: 8 mm; IC50 [21]: 98.8 µg/mL (≈ 255 µM); MIC [21]: 296 µg/mL (≈ 765 µM); zone of inhibition at 1000 µg/mL [11]: 15 mm |
| Cn1cc(-c2cnc(N3CCC(C#N)CC3)c3nc(CCc4ccccc4)[nH]c23)cn1 |  | inactive |  |  | inactive |  |  |  | inactive | inactive | inactive | inactive | zone of inhibition at 500 µg/mL ([1]; MTCC 4102, 20 h, read-out: DIZ): 4.2 mm; zone of inhibition at 1000 µg/mL [3]: 12 mm; zone of inhibition at 1000 µg/mL [4]: 22 mm; zone of inhibition at 500 µg/mL [6]: 12.3 mm; zone of inhibition at 1000 µg/mL ([7]; MTCC 4102, 20 h, read-out: DIZ): 10 mm; IC50 [19]: 73.7 µg/mL (≈ 179 µM); MIC [19]: 195 µg/mL (≈ 475 µM); zone of inhibition at 500 µg/mL [8]: 5.4 mm |
| N#CC1CCCN(c2ncc(-c3cccc(F)c3)c3[nH]c(COc4ccccc4)nc23)C1 (centres undefined) | inactive |  | inactive | inactive |  | inactive | inactive | inactive |  | inactive |  | inactive | zone of inhibition at 500 µg/mL [2]: 2.8 mm; zone of inhibition at 500 µg/mL [5]: 8.7 mm; zone of inhibition at 1000 µg/mL [9]: 6 mm; IC50 [21]: 192 µg/mL (≈ 449 µM); MIC [21]: 384 µg/mL (≈ 898 µM); zone of inhibition at 1000 µg/mL [11]: 19 mm |
| Cn1cc(-c2cnc(N3CCC(C#N)CC3)c3nc(Cc4ccc(Cl)cc4Cl)[nH]c23)cn1 | inactive | inactive | inactive | inactive | inactive | inactive | inactive | inactive | inactive | inactive | inactive | inactive |  |
| CN[C@@H]1[C@H](O[C@H]2[C@H](O[C@H]3[C@H](O)[C@@H](O)[C@H](N=C(N)N)[C@@H](O)[C@@H]3N=C(N)N)O[C@@H](C)[C@]2(O)C=O)O[C@@H](CO)[C@H](O)[C@H]1O [STREPTOMYCIN] |  |  |  |  |  |  |  |  |  |  |  |  | diameter of the inhibition zone (DIZ) [13]: inactive; zone of inhibition at 10 µg/mL ([14]; NCIM 2155, 20 h, read-out: DIZ): 20.2 mm; zone of inhibition at 10 µg/mL ([15]; MTCC 4102, 20 h, read-out: DIZ): 23.8 mm; zone of inhibition at 10 µg/mL ([16]; NCIM 2931, 20 h, read-out: DIZ): 21.4 mm; zone of inhibition at 10 µg/mL ([17]; MTCC 4727, 20 h, read-out: DIZ): 20.9 mm; diameter of the inhibition zone (DIZ) [18]: inactive |
| CC(C)(C)Cc1nc2c(N3CCCC(C#N)C3)ncc(-c3cccc(F)c3)c2[nH]1 (centres undefined) | inactive | inactive | inactive | inactive | inactive | inactive | inactive | inactive | inactive | inactive | inactive | inactive |  |
| N#CC1CCCN(c2ncc(-c3cccc(F)c3)c3[nH]c(C4CCCCC4)nc23)C1 (centres undefined) | inactive | inactive |  | inactive | inactive | inactive | inactive |  | inactive | inactive | inactive | inactive | zone of inhibition at 1000 µg/mL [3]: 12.5 mm; zone of inhibition at 500 µg/mL [8]: 6 mm |
